These results are taken from paper PMC4841451 (Journal of medicinal chemistry, 2016).

The test system of assay [1] is pErk1/2 (MEK1 activity) in A549 and D54 cells. The assay is described as follows: Western blot of pERK1/2 in cultured tumor cells. It is filed as cell-based, human. The settings on record: both cell lines (A549, D54), 1 h treatment. In general terms: Immunoblotting shows a protein as a band on a membrane.
Assay [2] relates to pAkt (PI3K activity) in A549 and D54 cells. The assay is described as follows: Western blot of pAKT in cultured tumor cells. The settings on record: 1 h treatment; for PI3K inhibition in cells (Western blot): both cell lines (A549, D54); for PI3K activity, level of pAKT (Western blot): cultured A549 cells. It is filed as cell-based, human.
Assay [3] concerns A549 lung tumor cells. Nature of the assay: Cell viability, AlamarBlue assay, A549. It counts as cell-based, human. The settings on record: 48 h. Background: Alamar Blue is a resazurin reagent that responds to reducing activity.
For assay [4], the system named is D54 glioma cells. The assay is described as follows: Cell viability, AlamarBlue assay, D54. It is filed as cell-based. As to conditions: 48 h.
For assay [5], the system named is tumor ERK1/2 phosphorylation. The assay is described as follows: In vivo MEK1 inhibition in tumor bearing mice.
For assay [6], the system named is tumor Akt phosphorylation. Nature of the assay: In vivo PI3K inhibition in tumor bearing mice.
The mark [7] stands for this setting: preliminary experiment, A549 and D54 tumors, data not shown.
Where [8] appears, read: 375 mg/kg oral gavage, 2 h prior to sacrifice, D54 and A549 flank tumors.

In the case of `O=C(NOCCNCCCCCC(=O)N1CCN(c2nc(N3CCOCC3)nc(-n3c(C(F)F)nc4ccccc43)n2)CC1)c1ccc(F)c(F)c1Nc1ccc(I)cc1F` [Compound 9, N-(2-((6-(4-(4-(2-(Difluoromethyl)-1H-benzo[d]imidazol-1-yl)-6-morpholino-1,3,5-triazin-2-yl)piperazin-1-yl)-6-oxohexyl)amino)ethoxy)-3,4-difluoro-2-((2-fluoro-4-iodophenyl)amino)benzamide], the “inhibition of MEK activity in cells (Western blot)” value in assay [1] is “most pronounced”. Also, in assay [2], the “PI3K inhibition in cells (Western blot)” value is reported as “most pronounced” and the “PI3K activity, level of pAKT (Western blot)” value (“PI3K activity, level of pAKT” below) is on record as “high potency”. In addition, the cell viability entry in assay [3] is “as effective as the combination of ZSTK474 and PD0325901”. The cell viability result in assay [4] was “as effective as the combination of ZSTK474 and PD0325901”. For the same compound, the “ERK1/2 levels in mouse tumors” value in assay [5] (setting [7]) is on record as “modulation”. Further, in assay [6] (setting [7]), the “pAkt levels in mouse tumors” value is “modulation”.

Take `O=C(NOCCOCCOCCOCCN1CCN(c2nc(N3CCOCC3)nc(-n3c(C(F)F)nc4ccccc43)n2)CC1)c1ccc(F)c(F)c1Nc1ccc(I)cc1F` [Compound 14, N-(2-(2-(2-(2-(4-(4-(2-(Difluoromethyl)-1H-benzo[d]imidazol-1-yl)-6-morpholino-1,3,5-triazin-2-yl)piperazin-1-yl)ethoxy)-ethoxy)ethoxy)ethoxy)-3,4-difluoro-2-((2-fluoro-4-iodophenyl)amino)benzamide]: the “inhibition of MEK activity in cells (Western blot)” value in assay [1] is on record as “most pronounced”. Also, the “PI3K inhibition in cells (Western blot)” value in assay [2] is recorded as “most pronounced”. Besides, the “PI3K activity, level of pAKT” value in assay [2] is “high potency”. Moreover, the cell viability result in assay [3] was “as effective as the combination of ZSTK474 and PD0325901”; in assay [4] it was “as effective as the combination of ZSTK474 and PD0325901”. For the same compound, the “phosphorylation of ERK1/2 in excised tumor tissue” value in assay [5] (setting [8]) is reported as “inhibited”. In assay [6] (setting [8]), the “phosphorylation of Akt in excised tumor tissue” value is given as “inhibited”.

On to `O=C(CNCCONC(=O)c1ccc(F)c(F)c1Nc1ccc(I)cc1F)NCCCCCC(=O)N1CCN(c2nc(N3CCOCC3)nc(-n3c(C(F)F)nc4ccccc43)n2)CC1` [Compound 7, N-(2-((2-((6-(4-(4-(2-(Difluoromethyl)-1H-benzo[d]imidazol-1-yl)-6-morpholino-1,3,5-triazin-2-yl)piperazin-1-yl)-6-oxohexyl)amino)-2-oxoethyl)amino)ethoxy)-3,4-difluoro-2-((2-fluoro-4-iodophenyl)amino)benzamide], for which the “PI3K activity, level of pAKT” value in assay [2] is recorded as “high potency”.
